The subject of experiment [1] is pGL3(CAGA)12 reporter gene expression in A-204 cells. Description: A-204 reporter gene assay, stimulation by factors without inhibitors. It counts as cell-based, human. To be noted: in the absence of any inhibitors. The source says: An A-204 reporter gene assay was used to evaluate the effects of ActRIIB-Fc proteins and ActRIIB variant Fc fusion polypeptides on signaling by GDF-11 and activin A. Cell line: human rhabdomyosarcoma (derived from muscle). Reporter vector: pGL3(CAGA)12 (described in Dennler et al, 1998, EMBO 17: 3091-3100). The CAGA12 motif is present in TGF-beta responsive genes (e.g., PAI-1 gene), so this vector is of general use for factors signaling through SMADs.
Day 1: Split A-204 cells into 48-well plate.
Day 2: A-204 cells transfected with 10 ug pGL3(CAGA)12 or pGL3(CAGA)12(10 ug)+pRLCMV (1 pg) and Fugene.
Day 3: Add factors (diluted into medium+0.1% BSA). Inhibitors need to be preincubated with factors for 1 hr before adding to cells. Six hrs later, cells were rinsed with PBS and lysed.
This is followed by a luciferase assay.
Background: Reporter assays use an easily measured gene product as a stand-in for the process of interest.

For experiment [2], the system named is Sugen Hypoxia model of PAH. Description: Sugen Hypoxia rat model of PAH (semaxanib/hypoxia). It counts as in vivo. To be noted: Sugen Hypoxia rats; for decrease of right heart hypertrophy / reduction of mean pulmonary arterial pressure: day 28, compared to vehicle treated animals; for smooth muscle hypertrophy of pulmonary arterioles, average histopathological score: 0 (normal), 1 (minimal), 2 (mild), 3 (moderate), 4 (marked); for pulmonary arterioles completely muscularized / pulmonary arterioles non-muscularized / pulmonary arterioles partially muscularized: αSMA/elastin staining, 100 arterioles per animal. The procedure:
The effects of an ActRIIA-mFc fusion protein (ActRIIA-mFc homodimer as described in Example 1 and sildenafil (a phosphodiesterase-5 inhibitor approved for the treatment of PAH) were further examined the Sugen Hypoxia model of PAH. In this model, rats receive daily doses of semaxanib and are placed in a low oxygen environment (approximately 13% oxygen) to induce PAH 24 hours prior to start of therapy.
Rats were separated into different treatment groups (10 mice per group): 1) treatment with semaxanib (200 mg/kg administered s.c. as a single dose daily)/hypoxia and Tris buffered saline (administered i.p. as 1 ml/kg, every three days) (vehicle treatment group), 2) treatment with an ActRIIA-mFc polypeptide (10 mg/kg administered i.p. every three days) and semaxanib (200 mg/kg administered s.c. as a single dose daily)/hypoxia, 3) treatment with sildenafil (30 mg/kg administered orally twice daily) and semaxanib (200 mg/kg administered s.c. as a single dose daily)/hypoxia, and 4) control rats (Tris buffered saline administered i.p. as 1 ml/kg, every three days). Rats were treated for 28 days. Body weights were recorded prior to first dose on Day 1 and then weekly throughout the study.
(§1) On day 28, rats were anesthetized by an intraperitoneal injection of ketamine/xylazine (80/10 mg/kg). An incision was made in the neck, and a jugular vein was isolated and ligated anteriorly. A fluid-filled pressure catheter was introduced into the right jugular vein to measure pulmonary artery pressure (PAP). Another incision was made in the inguinal region, and femoral artery was isolated and ligated anteriorly. A Millar pressure catheter was introduced into a femoral artery to measure systolic arterial pressure, diastolic pressure, and heart rate. Mean arterial pressure and right PAP were monitored using the Notocord HEM (Croissy sur Seine, Frnace) v3.5 data capture system for approximately 5-10 minutes until stable measurements were obtained. During the measurements, rats were maintained at approximately 37° C. on a heating pad and body temperature was monitored throughout the procedure with a rectal temperature probe. At the conclusion of the procedure, rats were euthanized, and the hearts and lungs were removed. The entire heart was weighed. Next, the atria were removed and the left ventricle with septum (LV+S) was separated from the right ventricle (RV). The ventricles were weighed separately. Hypertrophy was assessed, in part, by calculating RV/LV+S. The lungs were also weighed.
(§2) Similar trends were observed on vessel muscularity based on histopathologic scoring. After staining tissue samples to detect αSMA/elastin, 100 pulmonary arterioles, between 10 m and 50 m in size, per animal were categorized as non-muscularized, partially muscularized, or completely muscularized. Pulmonary arterioles from vehicle treated rats were determined to be 72.5% completely muscularized, 27.4% partially muscularized, and 0.1% non-muscularized. […] Histopathological scoring of smooth muscle hypertrophy of pulmonary arterioles were also recorded as follows: 0 (normal), 1 (minimal), 2 (mild), 3 (moderate), or 4 (marked).

Experiment [3] deals with rat model of pulmonary arterial hypertension (PAH), monocrotaline-induced. The experiment in a line: Monocrotaline (MCT) rat model of pulmonary arterial hypertension. It counts as in vivo, Sprague Dawley rats. The conditions noted are these: MCT rats; for improvement in body weight: 28 days; for improvement in body weight / decrease of right heart hypertrophy / decrease of lung weight / reduction of elevated PAP: compared to monocrotaline treated rats (vehicle); for decrease of right heart hypertrophy / decrease of lung weight / reduction of elevated PAP: day 28; for decrease of right heart hypertrophy: RV/LV+S; for smooth muscle hypertrophy of pulmonary arterioles, average histopathological score: 0 (normal), 1 (minimal), 2 (mild), 3 (moderate), 4 (marked); for pulmonary arterioles completely muscularized / pulmonary arterioles non-muscularized / pulmonary arterioles partially muscularized: αSMA/elastin staining, 100 arterioles per animal. The procedure:
The effects of an ActRIIA-mFc fusion protein (ActRIIA-mFc homodimer as described in Example 1), an ALK4-Fc-ActRIIB-Fc heterodimer (as described in Examples 12 and 13), and sildenafil (a phosphodiesterase-5 inhibitor approved for the treatment of PAH) were examined in a rat model of pulmonary arterial hypertension (PAH). In this model, Sprague Dawley rats received a […] injection of monocrotaline (MCT) to induce PAH 24 hours prior to start of therapy.
Rats were separated into different treatment groups (10 mice per group): 1) treatment with MCT (60 mg/kg administered i.p. as a single dose at day 1 of study) and Tris buffered saline (i.p. as 1 ml/kg, every three days) (vehicle treatment group), 2) treatment with an ActRIIA-mFc polypeptide (10 mg/kg administered i.p. every three days) and MCT (60 mg/kg administered i.p. as a single dose at day 1 of study), 3) treatment with an ALK4-Fc:ActRIIB-Fc heterodimer (10 mg/kg administered i.p. every three days) and MCT (60 mg/kg administered i.p. as a single dose at day 1 of study), 4) treatment with sildenafil (30 mg/kg administered orally twice daily) and MCT (60 mg/kg administered i.p. as a single dose at day 1 of study), and 5) control rats (Tris buffered saline administered i.p. as 1 ml/kg, every three days). Rats were treated for 28 days. Body weights were recorded prior to first dose on Day 1 and then weekly throughout the study.
as §1
as §2, with “10 μm” for “10 m”, “be 62.3%” for “be 72.5%”, “muscularized, 36.4%” for “muscularized, 27.4%”, “and 1.4%” for “and 0.1%”

Experiment [4] addresses T1, GDF11 (Homo sapiens, UniProt O95390).
T1 sequence (O95390 299-407): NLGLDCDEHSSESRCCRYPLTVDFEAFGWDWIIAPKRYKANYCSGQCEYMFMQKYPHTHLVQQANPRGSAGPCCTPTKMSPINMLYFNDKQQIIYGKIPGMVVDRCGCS
Description: Biacore ligand affinity of ActRIIB-hFc forms, steady-state affinity fit. It counts as binding. How it is done:
(§3) Affinities of several ligands for ActRIIB(25-131)-hFc and its full-length counterpart ActRIIB(20-134)-hFc were evaluated in vitro with a Biacore™ instrument, and the results are summarized in Table 8 below. Kd values were obtained by steady-state affinity fit due to very rapid association and dissociation of the complex, which prevented accurate determination of kon and koff. ActRIIB(25-131)-hFc bound, for example, activin A, activin B, and GDF11 with high affinity.
(§4) The affinity of ActRIIB variants and other ActRIIB-hFc proteins for several ligands was evaluated in vitro with a Biacore™ instrument. Kd values were obtained by steady-state affinity fit due to the very rapid association and dissociation of the complex, which prevented accurate determination of kon and koff.
On the technique in general: Surface plasmon resonance follows binding to a sensor surface in real time, without labels.

Experiment [5] has as its target T2, activin B (Homo sapiens, UniProt P09529).
T2 sequence (P09529 293-407): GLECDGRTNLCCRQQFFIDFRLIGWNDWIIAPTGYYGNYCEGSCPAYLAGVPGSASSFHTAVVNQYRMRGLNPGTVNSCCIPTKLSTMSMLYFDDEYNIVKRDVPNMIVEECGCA
The experiment is described as above. It counts as binding. The procedure: as §3, §4

For experiment [6], the target named is T3, activin A (Homo sapiens, UniProt P08476).
T3 sequence (P08476 311-426): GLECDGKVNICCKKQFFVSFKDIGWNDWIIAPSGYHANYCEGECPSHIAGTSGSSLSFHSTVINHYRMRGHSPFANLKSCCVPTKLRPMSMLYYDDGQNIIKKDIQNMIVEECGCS
The experiment is described as above. It counts as binding. The procedure: as §3, §4

“activin A: TGF-beta superfamily ligand added as factor in the A-204 reporter gene assay”: in experiment [1], the ED50 was about 2 ng/mL and the “stimulation of reporter gene expression” value is listed as 10 fold.

Regarding “ActRIIA-mFc: extracellular domain of human ActRIIa fused to a mouse Fc domain with a minimal linker; homodimer”, in experiment [2], the “decrease of right heart hypertrophy” value is 53.5%; the “reduction of mean pulmonary arterial pressure” value amounted to 51.3%; the “smooth muscle hypertrophy of pulmonary arterioles, average histopathological score” value was 1.4; the “pulmonary arterioles completely muscularized” value was found to be 29.3%. In addition, in experiment [2], the pulmonary arterioles non-muscularized was found to be 1.4% and the “pulmonary arterioles partially muscularized” value is recorded as 69.3%. Also, in experiment [3], the “improvement in body weight” value was “did not show improvement in body weight”, the “decrease of right heart hypertrophy” value was determined as 47.1%, the “decrease of lung weight” value is listed as 18.4% and the “reduction of elevated PAP” value worked out at 68%. In experiment [3], the “smooth muscle hypertrophy of pulmonary arterioles, average histopathological score” value was found to be 1.6; the “pulmonary arterioles completely muscularized” value came to 25.8%; the pulmonary arterioles non-muscularized amounted to 7.3%; the “pulmonary arterioles partially muscularized” value is listed as 66.9%.

As a reminder, the Kd is a measure of binding affinity in units of concentration. On to “ActRIIB(25-131)-hFc: human ActRIIB extracellular domain with N- and C-terminal truncations (residues 25-131) fused to human Fc via three glycines”, for which, in experiment [4] (Biacore), the “GDF11 binding” value is reported as “high affinity”. Also, the Kd was determined as 0.031 nM in experiment [4] (Table 12, Kd by steady-state affinity fit, read-out: GDF11 (Kd e−11)); 0.012 nM in experiment [5] (Table 12, Kd by steady-state affinity fit, read-out: Activin B (Kd e−11)); 0.018 nM in experiment [6] (Table 12, Kd by steady-state affinity fit, read-out: Activin A (Kd e−11)). In addition, in experiment [5] (Biacore), the “activin B binding” value was “high affinity”. The “activin A binding” value in experiment [6] (Biacore) is reported as “high affinity”.

For “GDF-11: TGF-beta superfamily ligand added as factor in the A-204 reporter gene assay”, in experiment [1], the ED50 is about 1.5 ng/mL and the “stimulation of reporter gene expression” value turned out to be 16 fold.

Turning to `CCCc1nn(C)c2c(=O)[nH]c(-c3cc(S(=O)(=O)N4CCN(C)CC4)ccc3OCC)nc12` [sildenafil, reference compound], in experiment [2], the “decrease of right heart hypertrophy” value was found to be 10%; the “reduction of mean pulmonary arterial pressure” value worked out at 22.4%; the “smooth muscle hypertrophy of pulmonary arterioles, average histopathological score” value is recorded as 3; the “pulmonary arterioles completely muscularized” value is on record as 67.4%. For the same compound, in experiment [2], the pulmonary arterioles non-muscularized turned out to be 1.0% and the “pulmonary arterioles partially muscularized” value is given as 31.6%. In experiment [3], the “improvement in body weight” value is given as “did not have any improvement in body weight”, the “decrease of right heart hypertrophy” value stood at 18.5%, the “decrease of lung weight” value is 10% and the “reduction of elevated PAP” value is 30%. Moreover, in experiment [3], the “smooth muscle hypertrophy of pulmonary arterioles, average histopathological score” value was 3; the “pulmonary arterioles completely muscularized” value is 57.9%; the pulmonary arterioles non-muscularized worked out at 0.9%; the “pulmonary arterioles partially muscularized” value was found to be 41.6%.

These data come from patent US20230129812A1, “COMPOSITIONS AND METHODS FOR TREATING PULMONARY HYPERTENSION” (Acceleron Pharma Inc., priority 2020, published 2023).
